Experimental data reported in patent US20090163521A1, “Novel Pyrazolopyrimidinone Derivatives” (ORCHID RESEARCH LABORATORIES LIMITED, priority 2005, published 2009).

What was measured:
COX-2 = molecular target: T1, COX-2 (Homo sapiens, UniProt P35354); assay: Human whole blood assay (LPS-induced PGE2, COX-2 inhibition); assay type: cell-based; details: LPS stimulated
T1 construct: Fresh blood was collected in tubes containing sodium heparin by vein puncture from healthy male volunteers; endogenous in cells; host or cells: human whole blood from healthy male volunteers, aspirin-pretreated and LPS-stimulated
T1 sequence (P35354 18-604): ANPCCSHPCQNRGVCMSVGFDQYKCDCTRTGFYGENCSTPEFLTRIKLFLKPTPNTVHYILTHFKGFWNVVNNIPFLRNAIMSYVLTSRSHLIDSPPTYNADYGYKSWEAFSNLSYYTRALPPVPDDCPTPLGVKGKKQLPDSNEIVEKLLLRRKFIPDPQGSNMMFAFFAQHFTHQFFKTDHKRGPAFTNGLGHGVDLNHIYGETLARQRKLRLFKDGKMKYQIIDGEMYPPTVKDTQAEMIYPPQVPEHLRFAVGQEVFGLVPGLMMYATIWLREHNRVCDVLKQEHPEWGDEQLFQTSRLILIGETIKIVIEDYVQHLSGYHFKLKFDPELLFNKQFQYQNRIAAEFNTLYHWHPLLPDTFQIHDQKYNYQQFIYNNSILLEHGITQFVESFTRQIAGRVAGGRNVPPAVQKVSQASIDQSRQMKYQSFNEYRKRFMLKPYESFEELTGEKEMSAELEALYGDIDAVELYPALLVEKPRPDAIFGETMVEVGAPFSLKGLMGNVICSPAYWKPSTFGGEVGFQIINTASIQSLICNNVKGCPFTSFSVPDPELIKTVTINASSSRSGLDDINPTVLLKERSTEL
Method: Human whole blood provides a protein and cell rich milieu appropriate for the study of biochemical efficacy of anti-inflammatory compounds such as selective COX-2 inhibitors. […] This is correlating with the observation that COX-2 inhibitors have no effect on prostaglandin E2 (PGE2) production in normal blood. These inhibitors were active only after incubation of human blood with lipopolysaccharide (LPS), which induces COX-2 production in the blood.
Fresh blood was collected in tubes containing sodium heparin by vein puncture from healthy male volunteers. The subjects should have no apparent inflammatory conditions and not taken NSAIDs for at least 7 days prior to blood collection. Blood was preincubated with aspirin in vitro (12 μg/ml, at time zero) to inactivate COX-1 for 6 hours. Then test compounds (at various concentrations) or vehicle were added to blood. After that blood was stimulated with LPS B:4 (10 μg/ml) and incubated for another 18 h at 37° C. water bath. After which the blood was centrifuged, plasma was separated and stored at −80° C. (J. Pharmacol. Exp. Ther, 271, 1705, 1994; Proc. Natl. Acad. Sci. USA, 96, 7563, 1999). The plasma was assayed for PGE2 using Cayman ELISA kit as per the procedure outlined by the manufacturer (Cayman Chemicals, Ann Arbor, USA).

NCI-H460 = assay: DTP human tumor cell line screen, NCI-H460; assay type: cell-based; details: 100 μM; 48 hours; percent growth of control
Method: (§1) The current assay utilizes a 384 well plate format and fluorescent staining technologies resulting in greater screening capacity for testing of synthetic samples.
(§2) The cell lines of the cancer-screening panel are grown in RPMI 1640 medium containing 5% fetal bovine serum and 2 mM L-glutamine. For a typical screening experiment, cells are inoculated into 96 well microtiter plates in 100 μL. After cell inoculation, the micro-titer plates are incubated at 37° C., 5% CO2, 95% air and 100% relative humidity for 24 h prior to addition of experimental drugs. The cells are plated a densities of 5000 cells/well (MCF7), 1000 cells/well (NCI-H460), and 7500 cells/well (SF-268) to allow for varying doubling time of the cell lines. Each plate contains all three-cell lines, a series of dilutions of standard agents, total kill wells and appropriate controls. Plates are incubated under standard conditions for 24 hours prior to addition of experimental compounds or extracts.
(§3) Experimental compounds are solubilized in dimethyl sulfoxide (DMSO) at 400-times the desired maximum test concentration (maximum final DMSO concentration of 0.25%) and stored frozen. Compounds are then diluted with complete media with 0.1% gentamicin sulfate (5 μl of test sample in 100% DMSO is added to 565 μl of complete medium). 20 μl of this solution is then dispensed into test wells containing 50 μl of cell suspension to yield a test concentration of 1.00E-04M.
(§4) After compound addition, plates are incubated at standard conditions for 48 hours, 10 μl/well Alamar Blue is added and the plates are incubated for an additional 4 hours. Fluorescence is measured using an excitation wavelength of 530 nm and an emission wavelength of 590 nm.
(§5) Percent growth is calculated on a plate-by-plate basis for test wells relative to control wells. Percent Growth is expressed as the ratio of fluorescence of the test well to the average fluorescence of the control wells ×100.

MCF-7 = assay: DTP human tumor cell line screen, MCF-7; assay type: cell-based; details: 100 μM; 48 hours; percent growth of control
Method: as §1, §2, §3, §4, §5

SF-268 = assay: DTP human tumor cell line screen, SF-268; assay type: cell-based; details: 100 μM; 48 hours; percent growth of control
Method: as §1, §2, §3, §4, §5

TNF-α [1] = assay: In vitro measurement of TNF-α in LPS-stimulated human PBMC; assay type: cell-based; details: LPS 1 μg/ml, 18 h
Method: This assay determines the effect of test compounds on the production of TNF α in human Peripheral Blood Mononuclear Cells (PBMC). Compounds were tested for their ability to inhibit the activity of TNF α in human PBMC. PBMC were isolated from blood (from healthy volunteers) using BD Vacutainer CPT™ (Cell preparation tube, BD Bio Science) and suspended in RPMI medium (Physiol. Res. 52: 593-598, 2003). The test compounds were pre-incubated with PBMC (0.5 million/incubation well) for 15 minutes at 37° C. and then stimulated with Lipopolysaccharide (Escherichia coli: B4; 1 μg/ml) for 18 h at 37° C. in 5% CO2. The levels of TNFα in cell culture medium were estimated using enzyme linked Immunosorbent assay performed in a 96 well format as per the procedure of the manufacturer (Cayman Chemical, Ann Arbor, USA).

IL-6 = assay: In vitro measurement of IL-6 in LPS-stimulated human PBMC; assay type: cell-based; details: LPS 1 μg/ml, 18 h
Method: This assay determines the effect of test compounds on the production of IL-6 in human PBMC (Physiol. Res. 52: 593-598, 2003). Compounds were tested for their ability to inhibit the activity of IL-6 in human PBMC. PBMC were isolated from blood using BD Vacutainer CPT™ Cell preparation tube (BD Bio Science) and suspended in RPMI medium. The test compounds were pre-incubated with PBMC (0.5 million/incubation well) for 15 minutes at 37° C. and then stimulated with Lipopolysaccharide (Escherichia coli: B4; 1 μg/ml) for 18 h at 37° C. in 5% CO2. The levels of IL-6 in cell culture medium were estimated using enzyme linked Immunosorbent assay performed in a 96 well format as per the procedure of the manufacturer (Cayman Chemical, Ann Arbor, USA).

TNF-α [2] = assay: LPS induced sepsis for measurement of TNF-α inhibition in mice; assay type: in vivo; details: at 50 mg/kg, oral, serum 90 min after LPS
Method: The LPS induced sepsis model in mice was performed as described by Les sekut et al (J Lab Clin Med 1994; 124:813-20). Female Swiss albino mice were selected and the body weights were equivalent within each group. The mice were fasted for 20 hours with free access to water. The mice were dosed orally with the test compound suspended in vehicle containing 0.5% Tween 80 in 0.25% Carboxy-methylcellulose sodium salt. The control mice were administered the vehicle alone. After 30 min of oral dosing, mice were injected with 500 μg of Lipopolysaccharide (Escherichia coli, LPS: B4 from Sigma) in phosphate buffer saline solution into the intraperitoneal cavity of the mice. After 90 min of LPS administration mice were bled via retro-orbital sinus puncture. Blood samples were stored overnight at 4° C. Serum samples were collected by centrifuging the samples at 400 rpm for 15 min at 4° C. Immediately the serum samples were analysed for TNFα levels using commercially available mouse TNF-α ELISA kit (Amersham Biosciences) and assay was performed by the manufacturer instruction.

inhibition at 0.25 µM (COX-2) [%] | inhibition at 10 µM (COX-2) [%] | Compound | % T/C Lung (NCI-H460) (NCI-H460) [%] | % T/C Breast (MCF-7) (MCF-7) [%] | % T/C CNS (SF-268) (SF-268) [%] | inhibition at 10 µM (TNF-α [1]) [%] | other results
20.3 | 41.6 | CSc1ccc(-c2nc3[nH]nc(N)c3c(=O)n2-c2ccc(C)cc2)cc1 [Example 1, 3-amino-5-(4-methylphenyl)-6-[4-(methylthio)phenyl]-1,5-dihydro-4H-pyrazolo[3,4-d]pyrimidin-4-one] |  |  |  |  | melting point: > 285 °C
18.6 | 37.7 | CSc1ccc(-c2nc3[nH]nc(N)c3c(=O)n2-c2ccc(C(C)(C)C)cc2)cc1 [Example 6, 3-Amino-5-(4-tert-butylphenyl)-6-[4-(methylthio)phenyl]-1,5-dihydro-4H-pyrazolo[3,4-d]pyrimidin-4-one] | 0 | 0 | 1 |  | 
28.3 |  | CSc1ccc(-n2c(-c3ccc(Cl)cc3)nc3[nH]nc(N)c3c2=O)cc1 [Example 8, 3-Amino-5-[(4-methylthio)phenyl]-6-(4-chlorophenyl)-1,5-dihydro-4H-pyrazolo[3,4-d]pyrimidin-4-one] | 2 | 26 | 36 |  | 
 | 27.1 | CSc1ccc(-c2nc3[nH]nc(N)c3c(=O)n2-c2ccc(Cl)cc2)cc1 [Example 9, 3-Amino-5-(4-chlorophenyl)-6-[(4-methylthio)phenyl]-1,5-dihydro-4H-pyrazolo[3,4-d]pyrimidin-4-one] | 4 | 9 | 31 |  | 
 |  | CCc1ccc(-n2c(-c3ccc(SC)cc3)nc3[nH]nc(N)c3c2=O)cc1 [Example 10, 3-Amino-5-(4-ethylphenyl)-6-[(4-methylthio)phenyl]-1,5-dihydro-4H-pyrazolo[3,4-d]pyrimidin-4-one] | 4 | 22 | 10 |  | 
19.4 | 36.5 | CSc1ccc(-n2c(-c3ccc(C(F)(F)F)cc3)nc3[nH]nc(N)c3c2=O)cc1 [Example 17, 3-Amino-5-[(4-methylthio)phenyl]-6-(4-trifluoromethylphenyl)-1,5-dihydro-4H-pyrazolo[3,4-d]pyrimidin-4-one] | 25 | 0 | 0 |  | 
 |  | CSc1ccc(-c2nc3[nH]nc(N)c3c(=O)n2-c2ccc(Br)cc2)cc1 [Example 19, 3-Amino-5-(4-bromophenyl)-6-[(4-methylthio)phenyl]-1,5-dihydro-4H-pyrazolo[3,4-d]pyrimidin-4-one] |  |  |  | 64.8 | inhibition at 1 µM (IL-6): 15.9%
 |  | CCOc1ccc(-n2c(-c3ccc(SC)cc3)nc3c(c(N)nn3C)c2=O)cc1 [Example 21, 3-Amino-5-(4-ethoxyphenyl)-1-methyl-6-[4-(methylthio)phenyl]-1,5-dihydro-4H-pyrazolo[3,4-d]pyrimidin-4-one] |  |  |  | 75.1 | TNF-α Inhibition (%) (TNF-α [2]): 75.15 (at 50 mg/kg) %
 |  | CSc1ccc(-c2nc3c(c(N)nn3C)c(=O)n2-c2ccc(C(C)C)cc2)cc1 [Example 22, 3-Amino-5-(4-isopropylphenyl)-1-methyl-6-[4-(methylthio)phenyl]-1,5-dihydro-4H-pyrazolo[3,4-d]pyrimidin-4-one] |  |  |  | 54 | inhibition at 1 µM (IL-6): 12%
 |  | CSc1ccc(-c2nc3c(c(N)nn3C)c(=O)n2-c2ccc(Cl)cc2)cc1 [Example 24, 3-Amino-5-(4-chlorophenyl)-1-methyl-6-[4-(methylthio)phenyl]-1,5-dihydro-4H-pyrazolo[3,4-d]pyrimidin-4-one] |  |  |  | 87.9 | TNF-α Inhibition (%) (TNF-α [2]): 91.99 (at 50 mg/kg) %
 |  | CSc1ccc(-c2nc3[nH]nc(NC(C)=O)c3c(=O)n2-c2ccc(C)c(C)c2)cc1 [Example 36, N-[5-(3,4-Dimethylphenyl)-4-oxo-6-[(4-methylthio)phenyl]-4,5-dihydro-1H-pyrazolo[3,4-d]pyrimidin-3-yl]acetamide] |  |  |  | 29.9 | inhibition at 1 µM (IL-6): 12.7%
